Activity calls are given as the source filed them. The calls are words filed in the database; no cut-off is given here.
Tests used:
Rattus norvegicus [1] = test: Androgenic activity in ORX Sprague-Dawley rat assessed as restoration of prostate weight at 100 ug/day delivered at constant rate for 14 days via subcutaneous osmotic pumps; assay type: functional
Rattus norvegicus [2] = test: Suppression of serum FSH in ORX Sprague-Dawley rat at 0.1 to 1 mg/day delivered at constant rate for 14 days via subcutaneous osmotic pumps; assay type: functional
Rattus norvegicus [3] = test: Androgenic activity in ORX Sprague-Dawley rat assessed as restoration of seminal vesicles weight at 100 ug/day delivered at constant rate for 14 days via subcutaneous osmotic pumps; assay type: functional
Rattus norvegicus [4] = test: Anabolic activity in ORX Sprague-Dawley rat assessed as restoration of levator ani muscle weight at 100 ug/day delivered at constant rate for 14 days via subcutaneous osmotic pumps; assay type: functional, tissue-based
Rattus norvegicus [5] = test: Anabolic activity in ORX Sprague-Dawley rat assessed as restoration of levator ani muscle weight at 0.1 to 1 ug/day delivered at constant rate for 14 days via subcutaneous osmotic pumps; assay type: functional
Rattus norvegicus [6] = test: Androgenic activity in ORX Sprague-Dawley rat assessed as restoration of seminal vesicles weight at 0.1 to 1 ug/day delivered at constant rate for 14 days via subcutaneous osmotic pumps; assay type: functional
Rattus norvegicus [7] = test: Androgenic activity in ORX Sprague-Dawley rat assessed as restoration of prostate weight at 0.1 to 1 ug/day delivered at constant rate for 14 days via subcutaneous osmotic pumps; assay type: functional
Rattus norvegicus [8] = test: Reduction in serum cholesterol in female Sprague-Dawley rat at 100 mg/kg, po qd administered for 28 days; assay type: functional, organism-based
Rattus norvegicus [9] = test: Androgenic activity in ORX Sprague-Dawley rat assessed as restoration in seminal vesicle weight at 0.03 mg/day measured after delayed dosing administered 9 days post ORX via oral gavage for 14 days relative to intact control; assay type: functional
Rattus norvegicus [10] = test: Reduction in serum cholesterol in male Sprague-Dawley rat at 3 mg/kg, po qd administered for 28 days; assay type: functional; design: scale not given: the % may be the effect or the level left
Rattus norvegicus [11] = test: Effect on serum FSH in ORX Sprague-Dawley rat at 0.1 mg/day administered 9 days post ORX via oral gavage for 14 days (reference value: 43.45 +/- 4.97 ng/ml); assay type: functional
Homo sapiens [12] = test: Effect on lean weight level in healthy human at 3 mg administered daily via mouth for 14 days (reference value: 436.47 g); assay type: functional
Rattus norvegicus [13] = test: Androgenic activity in ORX Sprague-Dawley rat assessed as restoration in seminal vesicle weight at 0.3 mg/day measured after delayed dosing administered 9 days post ORX via oral gavage for 14 days relative to intact control; assay type: functional
Rattus norvegicus [14] = test: Androgenic activity in ORX Sprague-Dawley rat assessed as increase in prostate weight at 0.75 mg/day measured after delayed dosing administered 9 days post ORX via oral gavage for 14 days relative to intact control; assay type: functional
Rattus norvegicus [15] = organism: Rattus norvegicus; test: Effect on serum FSH in intact Sprague-Dawley rat at 1 mg/day measured for 14 days (reference value: 6.40 +/- 1.58 ng/ml); assay type: functional
Rattus norvegicus [16] = test: Anabolic activity in ORX Sprague-Dawley rat assessed as restoration of levator ani muscle weight measured after delayed dosing administered 9 days post ORX via oral gavage for 14 days; assay type: functional
Rattus norvegicus [17] = test: Androgenic activity in ORX Sprague-Dawley rat assessed as restoration of prostate weight measured after delayed dosing administered 9 days post ORX via oral gavage for 14 days; assay type: functional
Homo sapiens [18] = test: Effect on tissue weight in healthy human at 3 mg administered daily via mouth for 14 days (reference value: -8.24 g); assay type: functional
[19] = Terminal half life in human at 1 to 100 mg administered as PEG300-based solution after 72 hrs; assay type: ADME; conditions: in vivo, read-out: beta t1/2
Homo sapiens [20] = test: Effect on regional fat level in healthy human at 30 mg administered daily via mouth for 14 days (reference value: 0.64%); assay type: functional
Bone marrow cell [21] = test: Induction of differentiation of rat primary bone marrow cells toward osteoblast lineage assessed as ALP activity at 1 uM by spectrophotometric analysis; assay type: functional, cell-based
Homo sapiens [22] = test: Effect on tissue fat level in truncal obese human at 30 mg administered daily via mouth for 14 days (reference value: 0.69%); assay type: functional, Adipose tissue
Homo sapiens [23] = test: Effect on regional fat level in healthy human at 1 mg administered daily via mouth for 14 days (reference value: 0.64%); assay type: functional
Bone marrow cell [24] = test: Induction of differentiation of rat primary bone marrow cells toward osteoblast lineage assessed as ALP activity at 10 nM to 100 nM by spectrophotometric analysis; assay type: functional, cell-based
Homo sapiens [25] = test: Effect on lean weight level in truncal obese human at 30 mg administered daily via mouth for 14 days (reference value: 436.47 g); assay type: functional
Rattus norvegicus [26] = test: Androgenic activity in ORX Sprague-Dawley rat assessed as restoration in seminal vesicle weight at 0.01 mg/day measured after delayed dosing administered 9 days post ORX via oral gavage for 14 days relative to intact control; assay type: functional
Homo sapiens [27] = test: Effect on fat weight in healthy human at 1 mg administered daily via mouth for 14 days (reference value: 436 g); assay type: functional
[28] = Tmax in human plasma at 1 to 100 mg administered as solid oral dosage; assay type: ADME, cell-free
Rattus norvegicus [29] = test: Effect on serum LH in ORX Sprague-Dawley rat at 0.75 mg/day administered 9 days post ORX via oral gavage for 14 days (reference value: 9.66 +/- 1.13 ng/ml); assay type: functional
Rattus norvegicus [30] = organism: Rattus norvegicus; test: Effect on serum LH in intact Sprague-Dawley rat at 1 mg/day measured for 14 days (reference value: 0.281 +/- 0.126 ng/ml); assay type: functional
Homo sapiens [31] = test: Effect on fat weight in healthy human at 3 mg administered daily via mouth for 14 days (reference value: 436 g); assay type: functional
Homo sapiens [32] = test: Effect on fat weight in healthy human at 10 mg administered daily via mouth for 14 days (reference value: 436 g); assay type: functional
Rattus norvegicus [33] = test: Effect on serum FSH in ORX Sprague-Dawley rat at 1 mg/day administered 9 days post ORX via oral gavage for 14 days (reference value: 43.45 +/- 4.97 ng/ml); assay type: functional
Rattus norvegicus [34] = organism: Rattus norvegicus; test: Effect on serum FSH in intact Sprague-Dawley rat at 0.75 mg/day measured for 14 days (reference value: 6.40 +/- 1.58 ng/ml); assay type: functional
Rattus norvegicus [35] = organism: Rattus norvegicus; test: Effect on serum FSH in intact Sprague-Dawley rat at 0.1 mg/day measured for 14 days (reference value: 6.40 +/- 1.58 ng/ml); assay type: functional
Rattus norvegicus [36] = test: Androgenic activity in ORX Sprague-Dawley rat assessed as increase in prostate weight at 0.3 mg/day measured after delayed dosing administered 9 days post ORX via oral gavage for 14 days relative to intact control; assay type: functional
Rattus norvegicus [37] = test: Induction of […] bone density in OVX Sprague-Dawley rat at 3 mg/day administered daily by oral gavage measured after 45 days (reference value: 215 mg/mm'3); assay type: functional
Homo sapiens [38] = test: Effect on bone mineral content in healthy human at 3 mg administered daily via mouth for 14 days (reference value: 36.47 g); assay type: functional
Homo sapiens [39] = test: Effect on regional fat level in healthy human at 3 mg administered daily via mouth for 14 days (reference value: 0.64%); assay type: functional
Homo sapiens [40] = test: Effect on lean weight level in truncal obese human at 3 mg administered daily via mouth for 14 days (reference value: 436.47 g); assay type: functional
Rattus norvegicus [41] = test: Increase in femoral maximum load in OVX Sprague-Dawley rat at 3 mg/day administered daily co-treated with 1 mg/day alendronate by oral gavage measured after 45 days; assay type: functional
Rattus norvegicus [42] = test: Androgenic activity in ORX Sprague-Dawley rat assessed as restoration in seminal vesicle weight at 1 mg/day measured after delayed dosing administered 9 days post ORX via oral gavage for 14 days relative to intact control; assay type: functional
Rattus norvegicus [43] = organism: Rattus norvegicus; test: Effect on serum LH in intact Sprague-Dawley rat at 0.3 mg/day measured for 14 days (reference value: 0.281 +/- 0.126 ng/ml); assay type: functional
Homo sapiens [44] = test: Effect on tissue weight in healthy human at 10 mg administered daily via mouth for 14 days (reference value: -8.24 g); assay type: functional
Homo sapiens [45] = test: Effect on tissue fat level in healthy human at 10 mg administered daily via mouth for 14 days (reference value: 0.69%); assay type: functional, Adipose tissue
Rattus norvegicus [46] = organism: Rattus norvegicus; test: Effect on serum LH in intact Sprague-Dawley rat at 0.1 mg/day measured for 14 days (reference value: 0.281 +/- 0.126 ng/ml); assay type: functional
Rattus norvegicus [47] = organism: Rattus norvegicus; test: Effect on serum LH in intact Sprague-Dawley rat at 0.75 mg/day measured for 14 days (reference value: 0.281 +/- 0.126 ng/ml); assay type: functional
Rattus norvegicus [48] = test: Induction of […] bone density in ovary intact Sprague-Dawley rat at 3 mg/day administered daily by oral gavage measured after 45 days (reference value: 379 mg/mm'3); assay type: functional
Rattus norvegicus [49] = test: Effect on serum LH in ORX Sprague-Dawley rat at 0.01 mg/day administered 9 days post ORX via oral gavage for 14 days (reference value: 9.66 +/- 1.13 ng/ml); assay type: functional
Rattus norvegicus [50] = test: Androgenic activity in ORX Sprague-Dawley rat assessed as increase in prostate weight at 0.01 mg/day measured after delayed dosing administered 9 days post ORX via oral gavage for 14 days relative to intact control; assay type: functional
Homo sapiens [51] = test: Effect on lean weight level in healthy human at 10 mg administered daily via mouth for 14 days (reference value: 436.47 g); assay type: functional
[52] = Drug uptake in human plasma at 1 to 100 mg administered as PEG300-based solution after 72 hrs; assay type: ADME, cell-free
Rattus norvegicus [53] = test: Androgenic activity in intact Sprague-Dawley rat assessed as increase in prostate weight at 0.01 mg/day administered via oral gavage for 14 days relative to intact control; assay type: functional
Rattus norvegicus [54] = test: Anabolic activity in ORX Sprague-Dawley rat assessed as increase in levator ani muscle weight at 0.1 mg/day measured after delayed dosing administered 9 days post ORX via oral gavage for 14 days relative to intact control; assay type: functional
Rattus norvegicus [55] = test: Effect on serum LH in ORX Sprague-Dawley rat at 0.3 mg/day administered 9 days post ORX via oral gavage for 14 days (reference value: 9.66 +/- 1.13 ng/ml); assay type: functional
[56] = Tmax in human plasma at 1 to 100 mg administered as PEG300-based oral solution; assay type: ADME, cell-free
Rattus norvegicus [57] = test: Effect on serum LH in ORX Sprague-Dawley rat at 1 mg/day administered 9 days post ORX via oral gavage for 14 days (reference value: 9.66 +/- 1.13 ng/ml); assay type: functional

## CCC(=O)O[C@H]1CC[C@H]2[C@@H]3CCC4=CC(=O)CC[C@]4(C)[C@H]3CC[C@]12C
Rattus norvegicus [1]
  Activity: Active
Rattus norvegicus [2]
  Activity: Active
Rattus norvegicus [3]
  Activity: Active
Rattus norvegicus [4]
  Activity: Active

## C[C@](O)(COc1ccc(Cl)cc1)C(=O)Nc1ccc(C#N)c(C(F)(F)F)c1
Rattus norvegicus [5]
  Activity: Active
Rattus norvegicus [6]
  Activity: Dose-dependent effect
Rattus norvegicus [7]
  Activity: Dose-dependent effect

## CC(O)(COc1ccc(C#N)cc1)C(=O)Nc1ccc(C#N)c(C(F)(F)F)c1 (stereo unspecified)
Rattus norvegicus [8]
  Activity: Active
Rattus norvegicus [9]
  Activity: 9%
Rattus norvegicus [10]
  Activity: 30%
Rattus norvegicus [11]
  Activity: 20.69 ng/mL
Homo sapiens [12]
  Activity: 752.11 g
Rattus norvegicus [13]
  Activity: 49%
Rattus norvegicus [14]
  Activity: 62%
Rattus norvegicus [15]
  Activity: 4.38 ng/mL
Rattus norvegicus [16]
  ED50: 0.013 mg/kg
Rattus norvegicus [17]
  ED50: 0.22 mg/kg
  Emax: 75%
Homo sapiens [18]
  Activity: 728.89 g
[19]
  half-life: 19 to 22 h
Homo sapiens [20]
  Activity: 0.95%
Bone marrow cell [21]
  Activity: Active
Homo sapiens [22]
  Activity: -0.13%
Homo sapiens [23]
  Activity: 0.23%
Bone marrow cell [24]
  Activity: Active
Homo sapiens [25]
  Activity: 261 g
Rattus norvegicus [26]
  Activity: 7%
Homo sapiens [27]
  Activity: 197.89 g
[28]
  Tmax: 3.2 to 3.9 h
Rattus norvegicus [29]
  Activity: Below limit of detection
Rattus norvegicus [30]
  Activity: Below limit of detection
Homo sapiens [31]
  Activity: -22.67 g
Homo sapiens [32]
  Activity: 197.44 g
Rattus norvegicus [33]
  Activity: 6.33 ng/mL
Rattus norvegicus [34]
  Activity: 4.3 ng/mL
Rattus norvegicus [35]
  Activity: 6.6 ng/mL
Rattus norvegicus [36]
  Activity: 50%
Rattus norvegicus [37]
  Activity: 406 mg/mm3
Homo sapiens [38]
  Activity: -32.22 g
Homo sapiens [39]
  Activity: -0.22%
Homo sapiens [40]
  Activity: 1569.44 g
Rattus norvegicus [41]
  Activity: 207 N
Rattus norvegicus [42]
  Activity: 67%
Rattus norvegicus [43]
  Activity: Below limit of detection
Homo sapiens [44]
  Activity: 566.22 g
Homo sapiens [45]
  Activity: 0.1%
Rattus norvegicus [46]
  Activity: 0.177 ng/mL
Rattus norvegicus [47]
  Activity: Below limit of detection
Rattus norvegicus [48]
  Activity: 398 mg/mm3
Rattus norvegicus [49]
  Activity: 8.45 ng/mL
Rattus norvegicus [50]
  Activity: 9%
Homo sapiens [51]
  Activity: 368.67 g
[52]
  Drug uptake: Active
Rattus norvegicus [53]
  Activity: Active
Rattus norvegicus [54]
  Activity: 103%
Rattus norvegicus [55]
  Activity: Below limit of detection
[56]
  Tmax: 0.8 to 2.3 h
Rattus norvegicus [57]
  Activity: Below limit of detection

## C[C@](O)(COc1ccc(Cl)cc1)C(=O)Nc1ccc([N+](=O)[O-])c(C(F)(F)F)c1
Rattus norvegicus [5]
  Activity: Active
Rattus norvegicus [6]
  Activity: <20%
Rattus norvegicus [7]
  Activity: <20%

Reference: ChEMBL document CHEMBL3881526, “Selective androgen receptor modulators and method of use thereof” (2007)
